Format in all cases: biochemical
The subject of assay [1] is MYC. As to the kind of experiment: In vitro transcription-translation (IVTT) assay, MYC reporter. The conditions noted are these: IVTT assay, HeLa S3 lysate, MYC reporter, normalized sfGFP/mCherry ratio; half-log dilutions 30 μM-0.1 μM, 2 hrs at 30° C. From the text: (§1) All reporter constructs have been cloned into the pT7CFE1-CHis plasmid (ThermoFisher #88860) using Gibson assembly procedures (NEB #E2611L). The parental pT7CFE1-CHis plasmid contains an EMCV IRES at the 5′UTR for translation initiation, a multiple-cloning site (MCS) for gene insertion, an optional C-terminal His-epitope tag, and polyA sequence in the 3′UTR to regulate mRNA stability. All reporters are designed to be inserted at the MCS to include a red fluorescent protein (mCherry), P2A self-cleaving peptide which releases the preceding mCherry protein product, and a fusion open reading frame containing a 3×FLAG epitope, a peptide sequence of interest (TEST), and green fluorescent protein (sfGFP).
(§2) Construct Plasmid Preparation: All plasmids are isolated from MACH1 cells (ThermoFisher) grown overnight in ampicillin-containing luria broth, and purified using ZymoPure Express Plasmid Midiprep Kit (Zymo Research). Constructs are sequenced verified and diluted to a working concentration of 110 ng/μL.
(§3) HeLa S3 Lysate Preparation: HeLa S3 cell pellets are acquired from Ipracell/Ipratech (Belgium) and shipped as 4 mL frozen cell pellets on dry ice for storage at −80° C. until use. The procedure for lysate preparation is as follows. Prepare 1× Lysis Buffer, cold and stored on ice:
(§4) Each preparation takes 8 cell pellets (4 ml packed volume each, approximately 1.0×10^9 cells per pellet). Thaw cell pellets from −80° C. on ice for 90 mins. Lay pellets horizontally on top of the ice and rotate every 30 mins to ensure even thawing. Once thawed, add 4 mL of cold lysis buffer to each pellet, and using a serological pipet, gently pipet up and down to break up clumps. Incubate resuspended cells in ice for an additional 30 mins (plunged into ice). During 30 min incubation, rinse and RNase-zap (Ambion) glass dounces (use loose pestle “A”), gently dry and place on ice until needed. Prepare RNase-free Eppendorf tubes for spinning and for batch storage. Add batch labels to 1.5-1.7 mL RNase-free microcentrifuge tubes (labeling scheme below). Each batch will have an extra 1.5-1.7 mL RNase-free microcentrifuge tube for 40 μL of lysate, label the top of this tube (labeling scheme below). After 30 min incubation, transfer all 8 mL of cell pellet to dounce. Cell lysis is complete after douncing 100 times. Aliquot cell lysis into 1.5-1.7 mL temporary-microcentrifuge tubes. Place tubes in centrifuge with “fins” out, and spin at 1,200×g for 5 mins. After the first spin use a 1 mL pipet to resuspend each tube and repeat spin. This acts as an additional lysis step, is more vigorous and increases lysate yield. During second spin get liquid N2 and a fresh conical tube on ice. After spin is complete, transfer supernatant (lysate) from microcentrifuge tubes into the 50 mL conical tube and keep on ice. Repeat steps 10-14 for all other cell pellets until completed. Once all cell lysate has been transferred to the 50 mL conical tube pipet to mix so the solution is homogenous. Transfer 1 mL of lysate into batch-labeled microcentrifuge tubes and flash freeze in liquid nitrogen. Be sure to pipet up and down to mix throughout transfer step. Place all tubes in the […] for long-term storage.
(§5) In vitro transcription-translation assay setup: Each assay includes a master mix containing lysate and shared components, a 96-well plate containing compound titrations for testing, a 96-well DNA plate with reporter constructs to be tested, 96-well skirted PCR plates, and 96-well flat-bottom, black, fluorescent assay plates. […]

Assay [2] has as its system MCL-1. The assay is described as follows: In vitro transcription-translation (IVTT) assay, MCL-1 reporter. The conditions noted are these: IVTT, HeLa S3 lysate, 2 hrs at 30° C.; read-out: MCL1 IC50.
From the text: as §1, §2, §3, §4, §5

Assay [3] deals with CCND1. As to the kind of experiment: In vitro transcription-translation (IVTT) assay, CCND1 reporter. The conditions noted are these: IVTT, HeLa S3 lysate, 2 hrs at 30° C.
From the text: as §1, §2, §3, §4, §5

For assay [4], the system named is CCNTB1. The assay is described as follows: In vitro transcription-translation (IVTT) assay, CCNTB1 reporter. The conditions noted are these: HeLa S3 lysate, 2 hrs at 30° C. The procedure:
as §4
In vitro transcription-translation assay setup: Each assay includes a master mix containing lysate and shared components, a 96-well plate containing compound titrations for testing, a 96-well DNA plate with reporter constructs to be tested, 96-well skirted PCR plates, and 96-well flat-bottom, black, fluorescent assay plates. Reaction materials setup: (A) Master mix—15 mL conical tube (3 mL of HeLa S3 Lysate described above; 0.6 mL of ThermoFisher Accessory Proteins (#88882); 1.2 ml of ThermoFisher Reaction Mix (#88882); 0.54 mL of nuclease-free Water); (B) 96-Well Master Mix+Compound Plate (Half-log dilutions (30 μM−0.1 μM) of 4 compounds of interest are prepared in 100% DMSO); 96-Well DNA Plate (Five DNA constructs are plated into single columns within the plate. Row 1 of the column contains nuclease free H2O, all other wells contain 110 ng/μL plasmid DNA). Reactions are started by mixing 155 μL of master mix and 3.5 μL of compound serial dilutions, then 9.1 μL of master mix+compound mixture is aliquoted across 5 96-well plates. Reactions begin with final addition of 2 μL of DNA for a 11.1 μL reaction volume in each well. The entire plate is sealed, and incubated for 2 hrs at 30° C. After 2 hrs, quench the assay using 45 μL of PBS, and transfer 50 μL to a flat-bottom black microplate Quantify the sfGFP and mCherry signals from each well on each plate, taking 3 reads of each plate, and perform data analysis below.
In vitro transcription-translation assay data analysis: Each plate is read three times in channels for both sfGFP and mCherry signals. The average signal across these 3 reads is then calculated for further analysis. Control wells containing no DNA reporter are subtracted from reporter wells in the same column to remove auto-fluorescence of the lysate. Then, the ratio of sfGFP/mCherry is calculated per well, and these ratios are averaged across the triplicate experiments on the same plate. Finally, the ratio of each titration concentration is normalized to the no drug control to create the normalized stalling metric. […]

This note sets out measurements from US20250129021A1, “SMALL MOLECULE PROTEIN SYNTHESIS MODULATORS” (Interdict Bio, Inc., priority 2023, published 2025).

A value given as a limit tells only on which side of the number the result lay.

In the case of `O=C(NCc1cccc(F)c1)O[C@@H]1[C@@H](O)CN[C@@H]1Cc1ccc(-c2cscn2)cc1` [V190511, (2R,3S,4S)-4-hydroxy-2-{[4-(1,3-thiazol-4-yl)phenyl]methyl}pyrrolidin-3-yl N-[(3-fluorophenyl)methyl]carbamate], the IC50 in assay [1], in assay [2], in assay [3] and in assay [4] was less than 10 µM throughout.

Regarding `COc1ccc(C[C@H]2NC[C@H](O)[C@H]2OC(=O)NCc2cccc(Cl)c2)cc1` [V191904, (2R,3S,4S)-4-hydroxy-2-[(4-methoxyphenyl)methyl]pyrrolidin-3-yl N-[(3-chlorophenyl)methyl]carbamate], the IC50 in assay [1], in assay [2], in assay [3] and in assay [4] was less than 10 µM each time.

`COc1ccc(C[C@H]2NC[C@H](O)[C@H]2OC(=O)NCc2ccc(F)c(C#N)c2)cc1` [V188310, (2R,3S,4S)-4-hydroxy-2-[(4-methoxyphenyl)methyl]pyrrolidin-3-yl N-[(3-cyano-4-fluorophenyl)methyl]carbamate]: the IC50 in assay [1], in assay [2], in assay [3] and in assay [4] was less than 10 µM in each case.

In the case of `COc1ccc(C[C@H]2NC[C@H](O)[C@H]2OC(=O)NC[C@H]2CCN(C)C2)cc1` [V188306], the IC50 in assay [1], in assay [2], in assay [3] and in assay [4] was less than 10 µM each time.

In the case of `COc1ccc(C[C@H]2NC[C@H](O)[C@H]2OC(=O)NCC(=O)N[C@@H](C)C(=O)O)cc1` [V188019, (2S)-2-{2-[({[(2R,3S,4S)-4-hydroxy-2-[(4-methoxyphenyl)methyl]pyrrolidin-3-yl]oxy}carbonyl)amino]acetamido}propanoic acid], the IC50 (in general, the point on the concentration scale where inhibition reaches its midpoint) in assay [1] was 10 to 20 µM; in assay [2], greater than 30 µM; in assay [3], greater than 30 µM; in assay [4], greater than 30 µM.

For the compound `COc1ccc(C[C@H]2NC[C@H](O)[C@H]2OC(=O)NC2CC3(CCNC3)C2)cc1` (stereo partly drawn) [V190538, (2R,3S,4S)-4-hydroxy-2-[(4-methoxyphenyl)methyl]pyrrolidin-3-yl N-{6-azaspiro[3.4]octan-2-yl}carbamate], the IC50 in assay [1], in assay [2], in assay [3] and in assay [4] was greater than 30 µM throughout.

Consider `COc1ccc(C[C@H]2NC[C@H](O)[C@H]2OC(=O)NCC2COC2)cc1` [V188299, (2R,3S,4S)-4-hydroxy-2-[(4-methoxyphenyl)methyl]pyrrolidin-3-yl N-(oxetan-3-ylmethyl)carbamate], for which the IC50 was less than 10 µM in assay [1], less than 10 µM in assay [2], 10 to 20 µM in assay [3] and less than 10 µM in assay [4].

With `COc1ccc(C[C@H]2NC[C@H](O)[C@H]2OC(=O)NCc2ccc(F)c(F)c2)cc1` [V190408, (2R,3S,4S)-4-hydroxy-2-[(4-methoxyphenyl)methyl]pyrrolidin-3-yl N-[(3,4-difluorophenyl)methyl]carbamate], the IC50 in assay [1], in assay [2], in assay [3] and in assay [4] was less than 10 µM in each case.

Take `O=C(NCc1ccccc1)O[C@@H]1[C@@H](O)CN[C@@H]1Cc1ccc(C2CC2)cc1` [V188329, (2R,3S,4S)-2-[(4-cyclopropylphenyl)methyl]-4-hydroxypyrrolidin-3-yl N-benzylcarbamate]: the IC50 in assay [1], in assay [2], in assay [3] and in assay [4] was less than 10 µM each time.

In the case of `COc1ccc(C[C@H]2NC[C@H](O)[C@H]2OC(=O)NCc2cnsc2)cc1` [V188384, (2R,3S,4S)-4-hydroxy-2-[(4-methoxyphenyl)methyl]pyrrolidin-3-yl N-(1,2-thiazol-4-ylmethyl)carbamate], the IC50 in assay [1], in assay [2], in assay [3] and in assay [4] was less than 10 µM each time.

With `COc1ccc(C[C@H]2NC[C@H](O)[C@H]2OC(=O)NCc2cccc(C(F)F)c2)cc1` [V191954, (2R,3S,4S)-4-hydroxy-2-[(4-methoxyphenyl)methyl]pyrrolidin-3-yl N-{[3-(difluoromethyl)phenyl]methyl}carbamate], the IC50 in assay [1], in assay [2], in assay [3] and in assay [4] was less than 10 µM in each case.

On to `COc1ccc(C[C@H]2NC[C@H](O)[C@H]2OC(=O)NCc2ccnc3c2CCN3)cc1` [V188360, (2R,3S,4S)-4-hydroxy-2-[(4-methoxyphenyl)methyl]pyrrolidin-3-yl N-{1H,2H,3H-pyrrolo[2,3-b]pyridin-4-ylmethyl}carbamate], for which the IC50 in assay [1], in assay [2], in assay [3] and in assay [4] was less than 10 µM each time.

Consider `COc1ccc(C[C@H]2NC[C@H](O)[C@H]2OC(=O)NCc2ccc(C3CCCN3)cc2)cc1` (stereo partly drawn) [V188355, (2R,3S,4S)-4-hydroxy-2-[(4-methoxyphenyl)methyl]pyrrolidin-3-yl N-{[4-(pyrrolidin-2-yl)phenyl]methyl}carbamate], for which the IC50 in assay [1], in assay [2], in assay [3] and in assay [4] was less than 10 µM throughout.

As for `COc1ccc(C[C@H]2NC[C@H](O)[C@H]2OC(=O)NCC[C@@H]2CCC3(CC3)N2)cc1` [V191945, (2R,3S,4S)-4-hydroxy-2-[(4-methoxyphenyl)methyl]pyrrolidin-3-yl N-{2-[(5S)-4-azaspiro[2.4]heptan-5-yl]ethyl}carbamate], the IC50 was less than 10 µM in assay [1], less than 10 µM in assay [2], 10 to 20 µM in assay [3] and less than 10 µM in assay [4].

In the case of `O=C(NCc1cccc(F)c1)O[C@@H]1[C@@H](O)CN[C@@H]1Cc1ccc(-n2ccnc2)cc1` [V190515, (2R,3S,4S)-4-hydroxy-2-{[4-(imidazol-1-yl)phenyl]methyl}pyrrolidin-3-yl N-[(3-fluorophenyl)methyl]carbamate], the IC50 in assay [1], in assay [2], in assay [3] and in assay [4] was less than 10 µM in each case.
